# Measurements from US20230398098A1, “TOPICAL DETOMIDINE FORMULATIONS” (Clexio Biosciences Ltd., priority 2020, published 2023).
# Counter-ions that a name gives are not always drawn.
# Columns and labels:
# Type in all cases: physicochemical
# [1] = Aldehyde impurity assessment: aqueous stock solutions exposed to air, HPLC of RRT = 0.38; settings: 7.4 wt % detomidine HCl in water; for RRT = 0.38 content at 2 years: exposed to air at room temperature; for Initial RRT = 0.38 content: time zero
# Method: Therefore, for further identification of the elusive impurity, new HPLC protocols for assaying detomidine HCl were developed. One protocol (“HPLC Protocol A”) comprised using a SunFire C8 column, 100Å, 3.5 μm, 4.6×150 mm column with an initial mobile phase of 70% Ammonium Phosphate buffer solution, pH 7.9 and 30% Acetonitrile, at a flow rate of 1.0 mL/min and UV detection at 220 nm. To remove late eluting peaks, the flush gradient shown in Table 5 was applied after each run. This HPLC protocol allowed for a resolution factor of 3.9 between detomidine and the unidentified impurity. The quantitation level (QL) for impurities and degradation products is 0.025%. The detection level (DL) for impurities and degradation products is 0.01%.
# Stock solutions of 7.4 wt % detomidine HCl in water were prepared using material from Table 6, Batch #iv and v and the samples were then kept exposed to air at room temperature for 2 years.
# [2] = Oxidation with potassium permanganate in aqueous solution, HPLC of RRT = 0.38; settings: 3 hours after solution preparation
# Method: A further sample of material from Table 6, Batch #v was reacted with potassium permanganate in aqueous solution. RRT=0.38 was found in the reaction product at 0.14% at 3 hours after solution preparation.
# [3] = Hydration study of solid forms by DVS analysis
# Method: Melting points (m.p.) of the intermediate detomidine free base and hydrochloride of Sample 5 measured in open capillary corresponded with the published literature and the DSC data and are presented in Table 4. In order to evaluate effect of humidity on different forms of detomidine, a hydration study was performed. Samples of detomidine free base and hydrochloride salt were subjected to DVS analysis. These observations are in accordance with the DVS results shown in FIGS. 1 and 2, for detomidine free base and detomidine HCl, respectively.
# During the dehydration cycle, the monohydrate began to lose water at RH˜10% and converted into the anhydrate at RH=0%.
# [4] = Solubility of solid forms in water (observation)
compound,measurement,setting,value
Cc1cccc(Cc2cnc[nH]2)c1C.Cl.O [Batch iv],RRT = 0.38 content at 2 years,[1]; listed as iv,1%
same,Initial RRT = 0.38 content,[1]; listed as iv,0.2%
Cc1cccc(Cc2cnc[nH]2)c1C.Cl.O [Batch v],RRT = 0.38 content at 2 years,[1]; listed as v,0.02%
same,Initial RRT = 0.38 content,[1]; listed as v,not detectable
same,RRT=0.38 in the reaction product,[2],0.14%
Cc1cccc(Cc2c[nH]cn2)c1C.Cl [Sample 2],"water level absorbed, cKF",[3]; hydration of the anhydrous form,7.7%
Cc1cccc(Cc2c[nH]cn2)c1C [anhydrous detomidine HCl],RH at which the anhydrate absorbs water / transforms completely into the monohydrate,[3]; DVS,30-50%
same,RH at which the anhydrate did not absorb water,[3]; DVS,< 30%
Cc1cccc(Cc2c[nH]cn2)c1C [detomidine HCl monohydrate],RH at which the monohydrate began to lose water,"[3]; dehydration cycle, DVS",~10%
same,RH at which the monohydrate converted into the anhydrate,"[3]; dehydration cycle, DVS",0%
"Cc1cccc(Cc2c[nH]cn2)c1C [detomidine free base, 4-[(2,3-dimethylphenyl)methyl]-1H-Imidazole]",hygroscopicity,"[3]; DVS, 24.4° C. (FIG. 1)",non-hygroscopic
same,water absorbed,[3]; at relative humidity (RH)>50%,more than 1%
same,solubility in water,[4],insoluble in water
Cc1cccc(Cc2c[nH]cn2)c1C [detomidine hydrochloride],solubility in water,[4],soluble
